Experimental data reported in patent US7879822B2, “Stabilized sulforaphane” (Pharmagra Labs, Inc., priority 2007, dated 2011).

How the values were obtained:
[1] = Stability analysis of sulforaphane-cyclodextrin formulations by HPLC (Example 1); format: physicochemical; conditions: stored in a freezer
Description: Analysis Overview: The sulforaphane formulations were analyzed via HPLC (UV detection at 254 nm) using an internal standard (DEET) method. An assumption is made that the sulforaphane completely disassociates from the cyclodextrin under the chromatographic conditions. A sulforaphane standard (stored in a freezer) is used to determine the response factor for each analysis.
Storage Conditions: The samples were stored under three conditions: Capped and at room temperature, capped and stored in the freezer (−30° C.), and open and stored in a 40° C. oven. These samples were analyzed for sulforaphane load over time. The stabilization of the different samples and different storage conditions may be seen in FIGS. 3-5.
Sample Preparation Example: A 20 mg to 50 mg (carefully weighed) formulation sample is dissolved in 1 mL of internal standard solution (DEET in DMF). The amount of ISTD solution is also carefully weighed. The sample is further diluted with 1 mL of nitrogen sparged deionized water. The samples are sonicated for approximately ten minutes and filtered through ha 0.45 μm nylon filter. The samples are then analyzed by HPLC UV detection at 254 nm.
Analysis Results: The results are presented as percent of theoretical load versus time (The calculation for theoretical was described above.)

[2] = Extended stability study of stabilized sulforaphane compositions by HPLC (Example 2); format: physicochemical; conditions: stored in a freezer
Description: The sulforaphane formulations were analyzed via HPLC (UV detection at 254 nm) using an internal standard (DEET) method. A sulforaphane standard (stored in a freezer) was used to determine the response factor for each analysis.
A ca. 300 mg (carefully weighed) formulation sample was dissolved in 8 mL of internal standard solution (DEET in DMF, ca 2 mg/mL). The amount of ISTD solution was also carefully weighed. The sample was further diluted with 8 mL of nitrogen sparged DI water. The samples were sonicated for ˜10 minutes and filtered through a 0.45 μm nylon filter. The samples were then analyzed by HPLC UV detection at 254 nm.
Chromatographic Conditions: • Column: Agilent Eclipse XDB-C18, 5 μm, 250×4.6 mm, […] @ 30° C. • Solvent A: 0.1% Formic acid in H2O • Solvent B: MeCN • Gradient: 5% to 100% Solvent B in Solvent A over 30 minutes • Flow: 1.5 mL/minute • Detector: UV 254 nm, ESI-MS (pos/neg) for confirmation • Retention Times: Sulforaphane: 9.2 minutes DEET: 15.5 minutes
Analysis Results: The results are presented as percent of the “time zero” load versus time.

C[S+]([O-])CCCCN=C=S (racemic) [sulforaphane]
stability of the standard (HPLC response factor over all analyses) [1]: stable
stability of the standard (HPLC response factor over all analyses) [2]: stable
